Laboratory results taken from the NIST ThermoML archive (doi:10.1016/j.jct.2013.05.051).

Test: xn = mol fraction of the nth substance listed
Conditions: Liquid, Vibrating tube method

CCCCCCCO [heptan-1-ol] + CCCCCCC
mass density [kg/m3]
Conditions | x1 = 0.1493 | x1 = 0.3215 | x1 = 0.5226 | x1 = 0.6698 | x1 = 0.8469 | x1 = 1
373.15 K, 50000 kPa | 691.2 | 709.3 | 735.5 | 755.9 | 786.3 | 800.3
373.15 K, 55000 kPa | 695.1 | 713 | 739.1 | 759.2 | 789.4 | 803.4
373.15 K, 60000 kPa | 698.8 | 716.6 | 742.4 | 762.4 | 792.4 | 806.3
373.15 K, 65000 kPa | 702.3 | 720.1 | 745.7 | 765.5 | 795.5 | 809.2
373.15 K, 70000 kPa | 705.7 | 723.2 | 748.8 | 768.5 | 798.2 | 811.9
373.15 K, 80000 kPa | 712.2 | 729.5 | 754.8 | 774.4 | 803.7 | 817.2
373.15 K, 90000 kPa | 718.3 | 735.4 | 760.4 | 779.8 | 808.9 | 822.3
373.15 K, 100000 kPa | 723.8 | 740.9 | 765.7 | 784.9 | 813.8 | 827
373.15 K, 110000 kPa | 729.2 | 746.1 | 770.7 | 789.8 | 818.5 | 831.6
373.15 K, 120000 kPa | 734.3 | 751 | 775.5 | 794.4 | 822.9 | 835.9
373.15 K, 130000 kPa | 739.1 | 755.7 | 780.1 | 798.9 | 827.3 | 840.2
373.15 K, 140000 kPa | 743.7 | 760.2 | 784.5 | 803.1 | 831.4 | 844.1
393.15 K, 100 kPa | – | – | – | – | – | 744.9
393.15 K, 1000 kPa | 617.4 | 639.3 | 670.1 | 693.9 | 729.1 | 745.8
393.15 K, 5000 kPa | 625 | 646.2 | 676.1 | 699.4 | 733.9 | 750.2
393.15 K, 10000 kPa | 633.5 | 653.8 | 683 | 705.6 | 739.3 | 755.3
393.15 K, 15000 kPa | 640.9 | 660.7 | 689.2 | 711.4 | 744.5 | 760.1
393.15 K, 20000 kPa | 647.6 | 666.9 | 694.9 | 716.6 | 749.2 | 764.6
393.15 K, 25000 kPa | 653.8 | 672.7 | 700.2 | 721.6 | 753.7 | 768.8
393.15 K, 30000 kPa | 659.5 | 678 | 705.2 | 726.3 | 758 | 772.9
393.15 K, 35000 kPa | 664.8 | 683.1 | 709.8 | 730.6 | 762.1 | 776.8
393.15 K, 40000 kPa | 669.7 | 687.7 | 714.2 | 734.8 | 765.9 | 780.4
393.15 K, 45000 kPa | 674.3 | 692.1 | 718.3 | 738.8 | 769.6 | 783.9
393.15 K, 50000 kPa | 678.7 | 696.3 | 722.3 | 742.6 | 773.1 | 787.3
393.15 K, 55000 kPa | 683 | 700.4 | 726.2 | 746.3 | 776.6 | 790.7
393.15 K, 60000 kPa | 687 | 704.1 | 729.8 | 749.7 | 779.8 | 793.8
393.15 K, 65000 kPa | 690.7 | 707.8 | 733.2 | 753.1 | 782.9 | 796.8
393.15 K, 70000 kPa | 694.4 | 711.4 | 736.7 | 756.4 | 786.1 | 799.8
393.15 K, 80000 kPa | 701.3 | 718.1 | 743.1 | 762.5 | 791.9 | 805.5
393.15 K, 90000 kPa | 707.8 | 724.3 | 749.2 | 768.3 | 797.5 | 810.9
393.15 K, 100000 kPa | 713.7 | 730.1 | 754.7 | 773.8 | 802.6 | 815.9
393.15 K, 110000 kPa | 719.4 | 735.7 | 760.1 | 778.9 | 807.7 | 820.8
393.15 K, 120000 kPa | 724.6 | 740.8 | 765 | 783.8 | 812.3 | 825.3
393.15 K, 130000 kPa | 729.7 | 745.7 | 769.8 | 788.5 | 816.8 | 829.8
393.15 K, 140000 kPa | 734.6 | 750.5 | 774.5 | 793 | 821.3 | 834
